The values below come from patent publication US12503471B2, “Triazatricycle compounds for the treatment of autoimmune disease” (Hoffmann-La Roche Inc., priority 2019, dated 2025).

In one data set the target is T1, human TLR7 (Homo sapiens, UniProt Q9NYK1).
T1 construct: host or cells: HEK293 (HEK-Blue hTLR7)
T1 sequence (Q9NYK1 27-1049): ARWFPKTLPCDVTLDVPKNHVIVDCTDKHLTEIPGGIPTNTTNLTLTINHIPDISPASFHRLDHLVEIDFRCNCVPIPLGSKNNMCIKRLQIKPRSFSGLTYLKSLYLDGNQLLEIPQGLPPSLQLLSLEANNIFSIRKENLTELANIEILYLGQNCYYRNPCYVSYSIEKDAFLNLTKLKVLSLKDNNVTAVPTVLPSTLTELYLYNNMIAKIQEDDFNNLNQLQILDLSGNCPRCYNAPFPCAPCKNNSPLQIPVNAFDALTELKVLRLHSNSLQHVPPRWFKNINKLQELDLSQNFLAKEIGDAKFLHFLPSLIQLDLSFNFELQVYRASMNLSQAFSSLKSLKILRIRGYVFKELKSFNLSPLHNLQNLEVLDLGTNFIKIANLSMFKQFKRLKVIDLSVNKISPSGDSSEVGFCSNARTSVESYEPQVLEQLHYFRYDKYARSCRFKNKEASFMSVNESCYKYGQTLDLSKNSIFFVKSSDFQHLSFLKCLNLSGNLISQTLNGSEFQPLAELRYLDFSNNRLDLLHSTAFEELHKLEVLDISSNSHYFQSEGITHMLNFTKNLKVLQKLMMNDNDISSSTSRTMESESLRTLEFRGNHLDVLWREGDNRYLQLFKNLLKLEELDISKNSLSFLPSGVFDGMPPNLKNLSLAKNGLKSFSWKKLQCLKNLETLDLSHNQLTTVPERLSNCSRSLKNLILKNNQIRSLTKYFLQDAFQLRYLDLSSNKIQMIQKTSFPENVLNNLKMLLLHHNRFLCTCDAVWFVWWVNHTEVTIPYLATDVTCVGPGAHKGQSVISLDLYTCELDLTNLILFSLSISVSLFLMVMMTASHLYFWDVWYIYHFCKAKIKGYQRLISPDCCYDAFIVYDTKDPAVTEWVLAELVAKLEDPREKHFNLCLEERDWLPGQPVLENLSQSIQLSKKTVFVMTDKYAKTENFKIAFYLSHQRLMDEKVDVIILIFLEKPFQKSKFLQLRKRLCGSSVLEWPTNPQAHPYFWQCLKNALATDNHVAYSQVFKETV
Briefly: HEK293-Blue-hTLR-7 cells assay. Type of data set: cell-based. Particulars: HEK293-Blue-hTLR7 cells, R848 stimulation, 20 hrs, SEAP reporter; read-out: HEK/hTLR7 IC50. From the text:
HEK293-Blue-hTLR-7 Cells Assay:
A stable HEK293-Blue-hTLR-7 cell line was purchased from InvivoGen (Cat. #: hkb-htlr7, San Diego, Calif., USA). These cells were originally designed for studying the stimulation of human TLR7 by monitoring the activation of NF-κB. A SEAP (secreted embryonic alkaline phosphatase) reporter gene was placed under the control of the IFN-β minimal promoter fused to five NF-κB and AP-1-binding sites. The SEAP was induced by activating NF-κB and AP-1 via stimulating HEK-Blue hTLR7 cells with TLR7 ligands. Therefore the reporter expression was declined by TLR7 antagonist under the stimulation of a ligand, such as R848 (Resiquimod), for incubation of 20 hrs. The cell culture supernatant SEAP reporter activity was determined using QUANTI-Blue™ kit (Cat. #: rep-qbl, Invivogen, San Diego, Ca, USA) at a wavelength of 640 nm, a detection medium that turns purple or blue in the presence of alkaline phosphatase.
HEK293-Blue-hTLR7 cells were incubated at a density of 250,000˜450,000 cells/mL in a volume of 170 μL in a 96-well plate in Dulbecco's Modified Eagle's medium (DMEM) containing 4.5 g/L glucose, 50 U/mL penicillin, […], […], 2 mM L-glutamine, 10% (v/v) heat-inactivated fetal bovine serum with addition of 20 μL test compound in a serial dilution in the presence of final DMSO at 1% and 10 μL of 20 uM R848 in above DMEM, perform incubation under 37° C. in a CO2 incubator for 20 hrs. Then 20 μL of the supernatant from each well was incubated with 180 μL Quanti-blue substrate solution at 37° C. for 2 hrs and the absorbance was read at 620-655 nm using a spectrophotometer. The signaling pathway that TLR7 activation leads to downstream NF-κB activation has been widely accepted, and therefore similar reporter assay was modified for evaluating TLR7 antagonist.

A short description of data set [1]: Human microsomal stability assay. The data set is classed as in vitro ADME. The following applies: human liver microsomes, 1 μM test compound, 0.5 mg/mL protein, 37° C., pH 7.4. The protocol:
Human Microsomal Stability Assay
Human liver microsomes (Cat.NO.: 452117, Corning, USA) were preincubated with test compound for 10 minutes at 37° C. in 100 mM potassium phosphate buffer, pH 7.4. The reactions were initiated by adding NADPH regenerating system. The final incubation mixtures contained 1 μM test compound, 0.5 mg/mL liver microsomal protein, 1 mM MgCl2, 1 mM NADP, 1 unit/mL isocitric dehydrogenase and 6 mM isocitric acid in 100 mM potassium phosphate buffer, pH 7.4. After incubation times of 0, 3, 6, 9, 15 and 30 minutes at 37° C., 300 μL of cold ACN (including internal standard) was added to 100 μL incubation mixture to terminate the reaction. Following precipitation and centrifugation, 100 uL supernatant will be taken out and added 300 uL water. The amount of compound remaining in the samples was determined by LC-MS/MS. Controls of no NADPH regenerating system at zero and 30 minutes were also prepared and analyzed. The results were categorized as: low (7.0 mL/min/kg), medium (7.0-16.2 mL/min/kg) and high (16.2-23.2 mL/min/kg).

pIC50: −log10 of the molar value.

For the compound `[2H]c1ccc2c(N3C[C@@H](C)N4Cc5nc(N6CC[C@@](C)(N)C6)ccc5[C@H]4C3)ccc(C#N)c2n1` [Example 7, 5-[(2S,6R)-11-[(3R)-3-amino-3-methyl-pyrrolidin-1-yl]-6-methyl-4,7,10-triazatricyclo[7.4.0.02,7]trideca-1(9),10,12-trien-4-yl]-2-deuterio-quinoline-8-carbonitrile], the pIC50 on human TLR7 was 8.55. Besides, the “CL (h)” value in data set [1] turned out to be 6.2 mL/min/kg.
The like results for `[2H]c1ccc2c(N3C[C@@H](C)N4Cc5nc(N6C[C@@H]7C[C@H]6CN7)ccc5[C@H]4C3)ccc(C#N)c2n1` [Example 16, 2-Deuterio-5-[(2S,6R)-11-[(1S,4S)-2,5-diazabicyclo[2.2.1]heptan-2-yl]-6-methyl-4,7,10-triazatricyclo[7.4.0.02,7]trideca-1(9),10,12-trien-4-yl]quinoline-8-carbonitrile] were, in that order, 8.77 and 6.2 mL/min/kg.
For the compound `[2H]c1ccc2c(N3C[C@@H](C)N4Cc5nc(N6CCC7(CC6)CNCCO7)ccc5[C@H]4C3)ccc(C#N)c2n1` [Example 18, 2-Deuterio-5-[(2S,6R)-6-methyl-11-(1-oxa-4,9-diazaspiro[5.5]undecan-9-yl)-4,7,10-triazatricyclo[7.4.0.02,7]trideca-1(9),10,12-trien-4-yl]quinoline-8-carbonitrile], on human TLR7, the pIC50 is 8.89.
`C[C@@H]1CN(c2ccc(C#N)c3ncccc23)C[C@@H]2c3ccc(N4CCCNCC4)nc3CN12` [Example 20, 5-[(2S,6R)-11-(1,4-diazepan-1-yl)-6-methyl-4,7,10-triazatricyclo[7.4.0.02,7]trideca-1(9),10,12-trien-4-yl]quinoline-8-carbonitrile]: at human TLR7, the pIC50 was 8.70.
Take `[2H]c1ccc2c(N3C[C@@H](C)N4Cc5nc(N6CC[C@H](N)[C@@H](OC)C6)ccc5[C@H]4C3)ccc(C#N)c2n1` [Example 12, 5-[(2S,6R)-11-[(3S,4S)-4-amino-3-methoxy-1-piperidyl]-6-methyl-4,7,10-triazatricyclo[7.4.0.02,7]trideca-1(9),10,12-trien-4-yl]-2-deuterio-quinoline-8-carbonitrile]: the pIC50 at human TLR7 was 8.80.
Regarding `[2H]c1ccc2c(N3C[C@@H](C)N4Cc5nc(C6CCNCC6)ccc5[C@H]4C3)ccc(C#N)c2n1` [Example 23, 2-Deuterio-5-[(2S,6R)-6-methyl-11-(4-piperidyl)-4,7,10-triazatricyclo[7.4.0.02,7]trideca-1(9),10,12-trien-4-yl]quinoline-8-carbonitrile], at human TLR7, the pIC50 is 8.77. In addition, the “CL (h)” value in data set [1] came to 6.2 mL/min/kg.
The like results for `[2H]c1ccc2c(N3C[C@@H](C)N4Cc5nc(N6CC[C@](C)(N)C6)ccc5[C@H]4C3)ccc(C#N)c2n1` [Example 8, 5-[(2S,6R)-11-[(3S)-3-amino-3-methyl-pyrrolidin-1-yl]-6-methyl-4,7,10-triazatricyclo[7.4.0.02,7]trideca-1(9),10,12-trien-4-yl]-2-deuterio-quinoline-8-carbonitrile] were, in that order, 8.89 and 6.2 mL/min/kg.
The like results for `C[C@@H]1CN(c2ccc(C#N)c3ncccc23)C[C@@H]2c3cnc(N4CCNCC4)cc3CN12` [Example 2, 5-[(2S,6R)-6-methyl-11-piperazin-1-yl-4,7,12-triazatricyclo[7.4.0.02,7]trideca-1(9),10,12-trien-4-yl] quinoline-8-carbonitrile] were, in that order, 8.51 and 6.2 mL/min/kg.
Regarding `CC1(N)CCN(c2ccc3c(n2)CN2CCN(c4ccc(C#N)c5ncccc45)C[C@@H]32)CC1` [Example 4A, 5-[(2R)-11-(4-amino-4-methyl-1-piperidyl)-4,7,10-triazatricyclo[7.4.0.02,7]trideca-1(9),10,12-trien-4-yl]quinoline-8-carbonitrile], on human TLR7, the pIC50 is 8.06. Moreover, the “CL (h)” value in data set [1] was 8.9 mL/min/kg.
As to `[2H]c1ccc2c(N3C[C@@H](C)N4Cc5nc(N6C[C@H]7C[C@@H]6CN7)ccc5[C@H]4C3)ccc(C#N)c2n1` [Example 17, 2-Deuterio-5-[(2S,6R)-11-[(1R,4R)-2,5-diazabicyclo[2.2.1]heptan-2-yl]-6-methyl-4,7,10-triazatricyclo[7.4.0.02,7]trideca-1(9),10,12-trien-4-yl]quinoline-8-carbonitrile], the pIC50 at human TLR7 is 8.57.
Same read-out and setting: for `[2H]c1ccc2c(N3C[C@@H](C)N4Cc5nc(N6CCC(C)(N)CC6)ccc5[C@H]4C3)ccc(C#N)c2n1` [Example 19, 5-[(2S,6R)-11-(4-amino-4-methyl-1-piperidyl)-6-methyl-4,7,10-triazatricyclo[7.4.0.02,7]trideca-1(9),10,12-trien-4-yl]-2-deuterio-quinoline-8-carbonitrile] the value was 8.96; for `[2H]c1ccc2c(N3C[C@@H](C)N4Cc5nc(O[C@H]6CCNC6)ccc5[C@H]4C3)ccc(C#N)c2n1` [Example 25, 2-Deuterio-5-[(2S,6R)-6-methyl-11-[(3S)-pyrrolidin-3-yl]oxy-4,7,10-triazatricyclo[7.4.0.02,7]trideca-1(9),10,12-trien-4-yl]quinoline-8-carbonitrile], 9.00.
Same read-out and setting: as for `[2H]c1ccc2c(N3C[C@@H](C)N4Cc5nc(N6CC[C@@H](OC)[C@H](N)C6)ccc5[C@H]4C3)ccc(C#N)c2n1` [Example 15, 5-[(2S,6R)-11-[(3R,4R)-3-amino-4-methoxy-1-piperidyl]-6-methyl-4,7,10-triazatricyclo[7.4.0.02,7]trideca-1(9),10,12-trien-4-yl]-2-deuterio-quinoline-8-carbonitrile], the figure is 8.59; as for `[2H]c1ccc2c(N3C[C@@H](C)N4Cc5nc(N6CC[C@H]7CNC[C@H]76)ccc5[C@H]4C3)ccc(C#N)c2n1` [Example 10, 5-[(2S,6R)-11-[(3aS,6aS)-3,3a,4,5,6,6a-hexahydro-2H-pyrrolo[2,3-c]pyrrol-1-yl]-6-methyl-4,7,10-triazatricyclo[7.4.0.02,7]trideca-1(9),10,12-trien-4-yl]-2-deuterio-quinoline-8-carbonitrile], 8.72; as for `[2H]c1ccc2c(N3C[C@@H](C)N4Cc5nc(N6CC[C@H](OC)[C@@H](N)C6)ccc5[C@H]4C3)ccc(C#N)c2n1` [Example 14, 5-[(2S,6R)-11-[(3S,4S)-3-amino-4-methoxy-1-piperidyl]-6-methyl-4,7,10-triazatricyclo[7.4.0.02,7]trideca-1(9),10,12-trien-4-yl]-2-deuterio-quinoline-8-carbonitrile], 8.47.
